Reference: patent publication US11548903B2, “Bicyclic thiazine and oxazine derivatives as beta-secretase inhibitors and methods of use” (AMGEN INC., priority 2016, dated 2023)
Read-outs that look alike come from different tables or passages of the source.

Assays:
[1] = biological target: human recombinant BACE2 (Homo sapiens (Human), UniProt Q9Y5Z0); assay: In vitro enzymatic BACE2 FRET assay; type: biochemical; conditions: read-out: BACE2 Enzyme IC50
Description: (§1) In Vitro Enzymatic BACE1 and BACE2 FRET (Fluorescence Resonance Energy Transfer) Assays […] These recombinant proteins were further purified using Ni-NTA affinity chromatography (Qiagen). […] The assay was effectively started by the addition of FRET substrate (50 nM) and the combination was incubated for one hour. The FRET assay was terminated by the addition of tris buffer, which raised the pH to neutrality, and the fluorescence was determined. The FRET substrate was a peptide with commercially available fluorophore and quencher, on opposite sides of the BACE cleavage site. The specific FRET substrate used in this assay was made by Amgen in-house. Commercially available FRET substrates, for example, the FRET substrate offered with the BACE1 FRET Assay Kit sold by ThermoFisher Scientific (Catalog Number P2985), may be used in this assay with the appropriate modifications, which are within the purview of the ability of a person with ordinary skill in the art. Proteolytic cleavage of the FRET substrate released quenching of fluorescence (excitation 488 nm and emission 590 nm).

[2] = biological target: human recombinant BACE1 (Homo sapiens (Human), UniProt P56817); assay: In vitro enzymatic BACE1 FRET assay; type: biochemical; conditions: read-out: BACE1 Enzyme IC50
Description: as §1

[3] = test system: BACE1 (Aβ40 from cells stably expressing Amyloid Precursor Protein); assay: In vitro BACE1 cell-based assay (Aβ40 in conditioned medium, HTRF)
Description: In Vitro BACE1 Cell-Based Assay The cell-based assay measures inhibition or reduction of Aβ40 in conditioned medium of test compound treated cells expressing amyloid precursor protein. Cells stably expressing Amyloid Precursor Protein (APP) were plated at a density of 45K cells/well in 384 well plates (Corning/BioCoat 354663). The test compounds were then added to cells in 22-point dose response concentrations with the starting concentration being 62.5 μM. The compounds were diluted from stock solutions in DMSO and the final DMSO concentration of the test compounds on cells was 0.625%. The cells were cultivated overnight at 37° C. and 5% CO2 in DMEM supplemented with 10% FBS. After 24 h of incubation with the test compounds, the conditioned media was collected and the Aβ40 levels were determined using HTRF (Homogeneous Time Resolved Fluorescence). […] The HTRF to detect Aβ40 was performed in 384 well plates (Costar 3658). The antibody pair that were used to detect Aβ 40 from cell supernatants were ConfAb40 antibody (Amgen in-house) and biotinylated 6E10 (BIOLEGEND). As an alternative to ConfAb40, a commercially available antibody, Anti-beta Amyloid 1-40 antibody [BDI350] from Abcam, Cambridge, Mass. 02139-1517 (Product code: ab20068), may be used in this assay. […] The conditioned media was incubated with above antibodies and Streptavidin Allophycocyanin Conjugate for 30-60 minutes at 23° C. The final readout was performed on Envision from PerkinElmer.

[4] = biological target: Recombinant CatD (Homo sapiens (Human), UniProt P07339); assay: In vitro enzymatic Cathepsin D (CatD) FRET assay; type: biochemical; conditions: read-out: Cat D Enzyme IC50
Description: In Vitro Enzymatic Cathepsin D (CatD) FRET Assay Recombinant CatD was expressed in CHO cells. The assay buffer for CatD was 0.05 M citrate pH 3.5, 10% DMSO final, 5 mM CHAPS. […] The assays was effectively started by the addition of different FRET substrates (20 nM for CatD) and the combination was incubated for one hour. The FRET assay was terminated with by addition of tris buffer, which raises the pH to neutrality, and the fluorescence was determined. The FRET substrate was a peptide with commercially available fluorophore and quencher, on opposite sides of the CatD cleavage site. The CatD substrate peptide sequence was based on sequence #1 of Table 1 from Gulnik et al., FEBS Lett. 413(2):379-384 (1997). Proteolytic cleavage of the FRET substrate released quenching of fluorescence (CatD excitation 500 nm and emission 580 nm). The in vitro CatD FRET assay data for each of the Examples is provided in Table 2, conducted by the first procedure described above. […] Thus, with this surprising selectivity profile, the compounds provided herein are believed to minimize, reduce or completely eliminate any risk of retinal atrophy and abnormal development of the eye and of the retinal pigmented epithelium as it relates to the normal function and activity of CatD.

[5] = Aβ40, 24 h incubation, read-out: BACE1 Cell IC50
[6] = 24 h, read-out: BACE1 Cell IC50 (μM)

human recombinant BACE1, sequence (P56817 46-501): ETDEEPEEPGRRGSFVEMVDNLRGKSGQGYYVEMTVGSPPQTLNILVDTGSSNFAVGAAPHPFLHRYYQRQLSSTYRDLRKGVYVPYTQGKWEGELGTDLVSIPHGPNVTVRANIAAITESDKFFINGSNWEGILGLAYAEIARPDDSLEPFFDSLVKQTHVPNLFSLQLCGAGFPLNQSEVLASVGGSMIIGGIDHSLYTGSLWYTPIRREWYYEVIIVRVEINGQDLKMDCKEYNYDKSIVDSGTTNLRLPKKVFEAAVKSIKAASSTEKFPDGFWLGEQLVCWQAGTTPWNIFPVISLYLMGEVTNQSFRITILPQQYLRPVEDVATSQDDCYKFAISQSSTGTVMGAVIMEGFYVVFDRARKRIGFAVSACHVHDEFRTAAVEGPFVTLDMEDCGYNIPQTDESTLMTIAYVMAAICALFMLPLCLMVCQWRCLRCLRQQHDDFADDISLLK
human recombinant BACE2, sequence (Q9Y5Z0 63-518): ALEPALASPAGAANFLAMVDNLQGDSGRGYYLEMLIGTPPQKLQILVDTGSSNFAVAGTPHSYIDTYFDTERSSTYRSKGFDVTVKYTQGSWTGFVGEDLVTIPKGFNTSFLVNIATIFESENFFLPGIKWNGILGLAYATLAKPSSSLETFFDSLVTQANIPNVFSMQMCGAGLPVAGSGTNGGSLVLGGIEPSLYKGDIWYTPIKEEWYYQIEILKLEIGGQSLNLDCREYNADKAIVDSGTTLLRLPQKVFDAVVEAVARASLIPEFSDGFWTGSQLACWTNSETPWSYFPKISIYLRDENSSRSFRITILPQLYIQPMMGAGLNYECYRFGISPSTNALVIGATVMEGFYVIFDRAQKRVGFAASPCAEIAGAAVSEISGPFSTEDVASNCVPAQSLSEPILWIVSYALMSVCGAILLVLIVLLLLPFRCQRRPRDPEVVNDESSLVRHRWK
Recombinant CatD, sequence (P07339 65-412): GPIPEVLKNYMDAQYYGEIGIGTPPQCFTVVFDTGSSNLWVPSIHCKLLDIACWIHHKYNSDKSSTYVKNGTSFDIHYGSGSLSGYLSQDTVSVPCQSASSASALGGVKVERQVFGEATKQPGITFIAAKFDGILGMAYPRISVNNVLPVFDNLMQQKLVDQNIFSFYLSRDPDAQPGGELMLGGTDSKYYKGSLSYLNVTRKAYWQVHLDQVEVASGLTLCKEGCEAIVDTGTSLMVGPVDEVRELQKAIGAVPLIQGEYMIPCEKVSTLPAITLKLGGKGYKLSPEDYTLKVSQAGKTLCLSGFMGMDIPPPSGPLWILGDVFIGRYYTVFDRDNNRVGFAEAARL

Compound	IC50 [1]	IC50 [2]	IC50 [3, 5]	IC50 [4]	IC50 [3, 6]
N#Cc1ccc(/C(F)=C/c2ccc(F)c([C@]34CN(c5ncccn5)C[C@H]3CSC(N)=N4)c2)nc1 [Example 135, 6-((Z)-2-(3-((4aR,7aS)-2-amino-6-(pyrimidin-2-yl)-4,4a,5,6,7,7a-hexahydropyrrolo[3,4-d][1,3]thiazin-7a-yl)-4-fluorophenyl)-1-fluorovinyl)nicotinonitrile]	22.3 nM	4.3 nM	0.0018 µM	106000 nM	
NC1=N[C@@]2(c3cc(/C=C(\F)c4ncc(C(F)(F)F)cc4Cl)ccc3F)CO[C@H](C(F)(F)F)[C@H]2CS1 [Example 137, (4aS,5S,7aS)-7a-(5-((Z)-2-(3-chloro-5-(trifluoromethyl)pyridin-2-yl)-2-fluorovinyl)-2-fluorophenyl)-5-(trifluoromethyl)-4a,5,7,7a-tetrahydro-4H-furo[3,4-d][1,3]thiazin-2-amine]	605 nM	15 nM	0.2 µM	382000 nM	
NC1=N[C@@]2(c3cc(/C=C(\F)c4ccc(Cl)cn4)ccc3F)CN(c3ncc(F)cn3)C[C@H]2CS1 [Example 101, (4aR,7aS)-7a-(5-((Z)-2-(5-chloropyridin-2-yl)-2-fluorovinyl)-2-fluorophenyl)-6-(5-fluoropyrimidin-2-yl)-4,4a,5,6,7,7a-hexahydropyrrolo[3,4-d][1,3]thiazin-2-amine]	1.03 nM	1.84 nM	0.00194 µM	49100 nM	
NC1=N[C@@]2(c3cc(/C=C(\F)c4ccc(Cl)cn4)ccc3F)COC[C@H]2CS1 [Example 105, (4aS,7aS)-7a-(5-((Z)-2-(5-chloropyridin-2-yl)-2-fluorovinyl)-2-fluorophenyl)-4a,5,7,7a-tetrahydro-4H-furo[3,4-d][1,3]thiazin-2-amine]	56.9 nM	64.4 nM	0.129 µM	181000 nM	
COc1nc(N2C[C@H]3CSC(N)=N[C@@]3(c3cc(/C=C(\F)c4ccc(C#N)cn4)ccc3F)C2)ncc1F [Example 134, 6-((Z)-2-(3-((4aR,7aS)-2-amino-6-(5-fluoro-4-methoxypyrimidin-2-yl)-4,4a,5,6,7,7a-hexahydropyrrolo[3,4-d][1,3]thiazin-7a-yl)-4-fluorophenyl)-1-fluorovinyl)nicotinonitrile]	4.3 nM	1.4 nM	0.0009 µM	59300 nM	
COc1nc(N2C[C@H]3CSC(N)=N[C@@]3(c3cc(/C=C(\F)c4ccc(C#N)cn4)ccc3F)C2)nc(C)c1F [Example 130, 6-((Z)-2-(3-((4aR,7aS)-2-amino-6-(5-fluoro-4-methoxy-6-methylpyrimidin-2-yl)-4,4a,5,6,7,7a-hexahydropyrrolo[3,4-d][1,3]thiazin-7a-yl)-4-fluorophenyl)-1-fluorovinyl)nicotinonitrile]	1.78 nM	0.405 nM	0.000906 µM	25800 nM	
Cc1noc(COc2cnc(/C(F)=C/c3ccc(F)c([C@]45CN(c6ncc(F)cn6)C[C@H]4CSC(N)=N5)c3)cn2)n1 (stereo in doubt) [Example 110, (4aR,7aS)-7a-(2-fluoro-5-((Z)-2-fluoro-2-(5-((3-methyl-1,2,4-oxadiazol-5-yl)methoxy)pyrazin-2-yl)vinyl)phenyl)-6-(5-fluoropyrimidin-2-yl)-4,4a,5,6,7,7a-hexahydropyrrolo[3,4-d][1,3]thiazin-2-amine]	85.5 nM	1.56 nM	0.00411 µM	4500 nM	
C#CCOc1cnc(/C(F)=C/c2ccc(F)c([C@]34CN(C(=O)CC)C[C@H]3CSC(N)=N4)c2)cn1 [Example 122, 1-((4aR,7aS)-2-amino-7a-(2-fluoro-5-((Z)-2-fluoro-2-(5-(prop-2-yn-1-yloxy)pyrazin-2-yl)vinyl)phenyl)-4a,5,7,7a-tetrahydropyrrolo[3,4-d][1,3]thiazin-6(4H)-yl)propan-1-one]	353 nM	2.36 nM	0.0086 µM	87900 nM	
C#CCOc1cnc(/C(F)=C/c2ccc(F)c([C@]34CN(C(=O)OC)C[C@H]3CSC(N)=N4)c2)cn1 [Example 121, (4aR,7aS)-methyl 2-amino-7a-(2-fluoro-5-((Z)-2-fluoro-2-(5-(prop-2-yn-1-yloxy)pyrazin-2-yl)vinyl)phenyl)-4a,5,7,7a-tetrahydropyrrolo[3,4-d][1,3]thiazine-6(4H)-carboxylate]	258 nM	1.59 nM		47900 nM	0.00679 µM
NC1=N[C@]2(c3cc(/C=C(\F)c4ccc(Cl)cn4)ccc3F)CN(c3ncc(F)cn3)C[C@@H]2CS1 [Example 100, (4aS,7aR)-7a-(5-((Z)-2-(5-chloropyridin-2-yl)-2-fluorovinyl)-2-fluorophenyl)-6-(5-fluoropyrimidin-2-yl)-4,4a,5,6,7,7a-hexahydropyrrolo[3,4-d][1,3]thiazin-2-amine]	495 nM	847 nM		544000 nM	1.25 µM
N#Cc1cnc(/C(F)=C/c2ccc(F)c([C@]34CO[C@H](C(F)(F)F)[C@H]3CSC(N)=N4)c2)c(Cl)c1 [Example 140, 6-((Z)-2-(3-((4aS,5S,7aS)-2-amino-5-(trifluoromethyl)-4a,5,7,7a-tetrahydro-4H-furo[3,4-d][1,3]thiazin-7a-yl)-4-fluorophenyl)-1-fluorovinyl)-5-chloronicotinonitrile]	220 nM	8.7 nM	0.0482 µM	333000 nM	
N#Cc1ccc(/C(F)=C/c2ccc(F)c([C@]34CO[C@H](C(F)F)[C@H]3CSC(N)=N4)c2)nc1 [Example 144, 6-((Z)-2-(3-((4aS,5S,7aS)-2-amino-5-(difluoromethyl)-4a,5,7,7a-tetrahydro-4H-furo[3,4-d][1,3]thiazin-7a-yl)-4-fluorophenyl)-1-fluorovinyl)nicotinonitrile]	741 nM	21.6 nM	0.0181 µM	> 400000 nM	
NC1=N[C@@]2(c3cc(/C=C(\F)c4ccc(OC(F)(F)F)cn4)ccc3F)CO[C@H](C(F)(F)F)[C@H]2CS1 [Example 129, (4aS,5S,7aS)-7a-(2-fluoro-5-((Z)-2-fluoro-2-(5-(trifluoromethoxy)pyridin-2-yl)vinyl)phenyl)-5-(trifluoromethyl)-4a,5,7,7a-tetrahydro-4H-furo[3,4-d][1,3]thiazin-2-amine]	2220 nM	108 nM	0.0151 µM	> 44400 nM	
N#Cc1ccc(/C(F)=C/c2ccc(F)c([C@]34CO[C@H](CF)[C@H]3CSC(N)=N4)c2)nc1 [Example 131, 6-((Z)-2-(3-((4aS,5S,7aS)-2-amino-5-(fluoromethyl)-4a,5,7,7a-tetrahydro-4H-furo[3,4-d][1,3]thiazin-7a-yl)-4-fluorophenyl)-1-fluorovinyl)nicotinonitrile]	427 nM	3.83 nM	0.0115 µM	> 400000 nM	
NC1=N[C@@]2(c3cc(/C=C(\F)c4cnc(OCC(F)(F)C(F)F)cn4)ccc3F)CN(c3ncc(F)cn3)C[C@H]2CS1 [Example 112, (4aR,7aS)-7a-(2-fluoro-5-((Z)-2-fluoro-2-(5-(2,2,3,3-tetrafluoropropoxy)pyrazin-2-yl)vinyl)phenyl)-6-(5-fluoropyrimidin-2-yl)-4,4a,5,6,7,7a-hexahydropyrrolo[3,4-d][1,3]thiazin-2-amine]	136 nM	108 nM		1320 nM	0.02 µM
